PubChem BioAssay (NCI)
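96-well plates; 48 h exposure; 5 concentrations. Endpoints by linear interpolation between flanking doses. Not reached: highest tested concentration assigned. GI50: concentration for 50% inhibition of growth. The concentration for full growth arrest is given as TGI.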

Legend:
Experiment in all cases: inhibition of tumour cell growth, NCI panel, 48 h
[1] = tested on: SF-539 CNS
[2] = tested on: MCF7 breast
[3] = tested on: SF-268 CNS
[4] = tested on: IGROV1 ovarian
[5] = tested on: COLO 205 colon
[6] = tested on: RPMI-8226 leukemia
[7] = tested on: HL-60(TB) leukemia
[8] = tested on: HCT-116 colon
[9] = tested on: RXF 393 renal
[10] = tested on: OVCAR-3 ovarian

Compound | GI50 [1] [nM] | TGI [1] [nM] | GI50 [2] [nM] | TGI [2] [nM] | GI50 [3] [nM] | TGI [3] [nM] | GI50 [4] [nM] | TGI [4] [nM] | GI50 [5] [nM] | TGI [5] [nM] | GI50 [6] [nM] | TGI [6] [nM] | GI50 [7] [nM] | TGI [7] [nM] | GI50 [8] [nM] | TGI [8] [nM] | GI50 [9] [nM] | TGI [9] [nM] | GI50 [10] [nM] | TGI [10] [nM]
Cc1csc(/C=C/C(=O)c2nnn(-c3ccnc4c(C(F)(F)F)cccc34)c2C)c1 | > 100000 | > 100000 | > 100000 | > 100000 | 25800 | > 100000 | > 100000 | > 100000 | 41300 | > 100000 | 23600 | > 100000 | 29700 | > 100000 | 39900 | > 100000 | > 100000 | > 100000 | > 100000 | > 100000
COc1cccc(NC(=O)c2sc3nc(C)c(C(O)c4ccccc4)cc3c2N)c1 (stereo unspecified) | 185 | 598 | 69.8 | 13900 | 1050 | 30900 | 441 | 16800 | 2420 | 13600 | 357 | 12300 | 231 | 742 | 241 | 12000 | 226 | 2750 | 255 | 2930
CNC(=O)c1ccccc1Nc1nc(Nc2cc(OC)c(OC)c(OC)c2)ncc1Br | 31.3 | 263 | 37.4 | 2780 | 38.4 | 2180 | – | – | 15.1 | 59.1 | 70.1 | 2840 | 24.5 | 181 | – | – | 15.4 | 71.2 | 69.5 | 25000
